Patent US9656955B2, “Pyrrolidine derivatives, pharmaceutical compositions containing them, and their use in therapy” (AbbVie Deutschland GmbH & Co. KG, priority 2013, dated 2017)

These compounds were tested against human GlyT1c transporter (Homo sapiens (Human), UniProt P48067) (assay: Radioligand binding assays using recombinant CHO cell membranes expressing human GlyT1). Details: radioligand binding, human GlyT1c transporter-expressing CHO cell membranes.
Sequence of human GlyT1c transporter (P48067 whole entry): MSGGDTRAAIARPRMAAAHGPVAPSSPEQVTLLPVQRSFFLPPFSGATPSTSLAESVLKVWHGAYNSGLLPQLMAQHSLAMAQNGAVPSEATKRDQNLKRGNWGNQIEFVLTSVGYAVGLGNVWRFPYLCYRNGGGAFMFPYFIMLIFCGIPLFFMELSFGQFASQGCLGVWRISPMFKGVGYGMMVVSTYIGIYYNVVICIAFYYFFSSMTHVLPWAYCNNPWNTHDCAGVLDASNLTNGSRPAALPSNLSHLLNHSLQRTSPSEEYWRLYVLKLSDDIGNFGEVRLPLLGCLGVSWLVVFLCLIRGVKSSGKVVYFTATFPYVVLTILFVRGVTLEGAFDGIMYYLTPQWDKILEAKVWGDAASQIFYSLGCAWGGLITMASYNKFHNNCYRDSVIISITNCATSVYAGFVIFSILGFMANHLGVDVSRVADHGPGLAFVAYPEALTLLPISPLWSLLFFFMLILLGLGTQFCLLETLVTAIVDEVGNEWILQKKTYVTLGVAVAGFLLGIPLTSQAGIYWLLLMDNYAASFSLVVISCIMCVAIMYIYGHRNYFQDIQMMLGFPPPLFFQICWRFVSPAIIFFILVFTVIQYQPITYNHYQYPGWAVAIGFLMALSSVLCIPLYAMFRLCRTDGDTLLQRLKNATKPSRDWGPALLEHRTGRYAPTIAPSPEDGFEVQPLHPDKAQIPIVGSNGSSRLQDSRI

Structure (SMILES)	Ki [µM]
Cn1cnc(S(=O)(=O)N2C[C@H](Nc3ccc(F)c(Cl)c3)[C@@H](c3ccccc3)C2)c1 [Example 417, (3R,4S)—N-(3-chloro-4-fluorophenyl)-1-[(1-methyl-1H-imidazol-4-yl)sulfonyl]-4-phenylpyrrolidin-3-amine]	≤ 0.01
Cn1cnc(S(=O)(=O)N2CC(NCc3ccc(C(F)(F)F)cc3Cl)C([C@@H]3CCCO3)C2)c1 (stereo partly drawn) [Example 823, N-[2-chloro-4-(trifluoromethyl)benzyl]-1-[(1-methyl-1H-imidazol-4-yl)sulfonyl]-4-[(2S)tetrahydrofuran-2-yl]pyrrolidin-3-amine]	≤ 1
COC(=O)c1ccc(S(=O)(=O)N2CC(Nc3ccc(F)c(F)c3)C(c3ccccc3)C2)n1C (centres unmarked) [Example 504, methyl 5-({3-[(3,4-difluorophenyl)amino]-4-phenylpyrrolidin-1-yl}sulfonyl)-1-methyl-1H-pyrrole-2-carboxylate]	≤ 10
CC(C)N1CCC(CN[C@H]2CN(S(=O)(=O)c3cn(C)cn3)C[C@@H]2c2ccccc2)CC1 [Example 459, (3R,4S)-1-[(1-methyl-1H-imidazol-4-yl)sulfonyl]-4-phenyl-N-{[1-(propan-2-yl)piperidin-4-yl]methyl}pyrrolidin-3-amine]	≤ 10
Cc1cc(N[C@H]2CN(S(=O)(=O)c3cn(C)cn3)C[C@@H]2c2ccc(F)cc2)ncc1F [Example 748, 5-fluoro-N-{(3R,4S)-4-(4-fluorophenyl)-1-[(1-methyl-1H-imidazol-4-yl)sulfonyl]pyrrolidin-3-yl}-4-methylpyridin-2-amine]	≤ 0.01
Cn1cnc(S(=O)(=O)N2C[C@H](Nc3cccc(C4CCNCC4)c3)[C@@H](c3ccccc3)C2)c1 [Example 777, (3R,4S)-1-[(1-methyl-1H-imidazol-4-yl)sulfonyl]-4-phenyl-N-[3-(piperidin-4-yl)phenyl]pyrrolidin-3-amine]	≥ 10
Cn1cnc(S(=O)(=O)N2C[C@H](NCc3nc(-c4ccc(F)cc4)cs3)[C@@H](c3ccccc3)C2)c1 [Example 460, (3R,4S)—N-{[4-(4-fluorophenyl)-1,3-thiazol-2-yl]methyl}-1-[(1-methyl-1H-imidazol-4-yl)sulfonyl]-4-phenylpyrrolidin-3-amine]	≤ 10
CCCCCCN[C@H]1CN(S(=O)(=O)c2cn(C)cn2)C[C@@H]1c1ccc(F)cc1 [Example 665, (3R,4S)-4-(4-fluorophenyl)-N-hexyl-1-[(1-methyl-1H-imidazol-4-yl)sulfonyl]pyrrolidin-3-amine]	≤ 0.01
Cn1cc(S(=O)(=O)N2CC(Nc3ccc(F)c(F)c3)C(c3ccccc3)C2)c(C(F)(F)F)n1 (centres unmarked) [Example 476, N-(3,4-difluorophenyl)-1-{[1-methyl-3-(trifluoromethyl)-1H-pyrazol-4-yl]sulfonyl}-4-phenylpyrrolidin-3-amine]	≤ 10
Cn1cnc(S(=O)(=O)N2C[C@@H](C(=O)c3ccc(F)cc3)[C@H](c3ccc(F)cc3)C2)c1 (relative stereo) [Example 303, (4-fluorophenyl){trans-4-(4-fluorophenyl)-1-[(1-methyl-1H-imidazol-4-yl)sulfonyl]pyrrolidin-3-yl}methasone]	≤ 10
Cc1nn(C)c(C)c1S(=O)(=O)N1CC(Nc2ccc(F)c(F)c2)C(c2ccccc2)C1 (centres unmarked) [Example 508, N-(3,4-difluorophenyl)-4-phenyl-1-[(1,3,5-trimethyl-1H-pyrazol-4-yl)sulfonyl]pyrrolidin-3-amine]	≤ 10
Cn1cnc(S(=O)(=O)N2C[C@H](Nc3cc(OCC4CNC4)ncn3)[C@@H](c3ccc(F)cc3)C2)c1 [Example 778, 6-(azetidin-3-ylmethoxy)-N-{(3R,4S)-4-(4-fluorophenyl)-1-[(1-methyl-1H-imidazol-4-yl)sulfonyl]pyrrolidin-3-yl}pyrimidin-4-amine]	≥ 10
CCCCOc1cc(N[C@H]2CN(S(=O)(=O)c3cn(C)cn3)C[C@@H]2c2ccccc2)ncn1 [Example 623, 6-butoxy-N-{(3R,4S)-1-[(1-methyl-1H-imidazol-4-yl)sulfonyl]-4-phenylpyrrolidin-3-yl}pyrimidin-4-amine]	≤ 0.1
Cn1cnc(S(=O)(=O)N2C[C@H](Nc3cccc(C(F)(F)F)c3)[C@@H](C3CCCO3)C2)c1 (stereo partly drawn) [Example 604, (3R,4S)-1-[(1-methyl-1H-imidazol-4-yl)sulfonyl]-4-(tetrahydrofuran-2-yl)-N-[3-(trifluoromethyl)phenyl]pyrrolidin-3-amine]	≤ 0.1
